One may read the Kd as the concentration at which binding is half-saturated. A word on the melting point: it is the temperature of the solid-liquid transition. In general, Ki refers to the dissociation constant of the complex between target and ligand, obtained from inhibition or displacement. A higher Ki goes with weaker binding.

The target in series [1] is T1, Aβ1-40 fibrils (Homo sapiens, UniProt P05067).
T1 construct: beta-amyloid plaque peptides (Aβ1-40 and Aβ1-42)
The conditions noted are these: radioactive ligand, known value, first Aβ1-40; cited from earlier work.

Series [2] concerns the target T2, Aβ1-42 fibrils (Homo sapiens, UniProt P05067).
T2 construct: beta-amyloid plaque peptides (Aβ1-40 and Aβ1-42)
The conditions noted are these: radioactive ligand, known value, printed as second Aβ1-40; read-out: Kd for Aβ1-40 (second named); cited from earlier work.

Series [3] is described as follows: Brain imaging (PET) of normal volunteer, brain region to cerebellar ratio. The class given is in vivo, human. The conditions noted are these: 196 MBq i.v.; for brain region to cerebellar ratio, Cinerea / brain region to cerebellar ratio, Frontal cortex / brain region to cerebellar ratio, Occipital cortex / brain region to cerebellar ratio, posterior cingulate cortex: PET; for brain region to cerebellar ratio, Cerebell: PET (reference region). The protocol: Each of the compounds (196 MBq) in Examples 2 and 3 of the present invention was dissolved in 6 ml of physiological saline solution including 5% ethanol, the resulting solution was intravenously injected into a normal volunteer (78 kg), and Static Images of the brain from the injection to 2 hours were obtained through a Phillips Allegro PET scanner. The protocol of the brain imaging repeated emission and transmission as follows.
[2 minute emission+transmission]×four times
[5 minute emission+transmission]×four times
[10 minute emission+transmission]×three times
For attenuation correction, a Cs-137 radiation source prior to the administration was used to obtain a one-and-a half minute transmission scan per bed (18 cm). The transmission image and a 3D Row-Action Maximum-Likelihood (RAMLA) algorithm were used to reconstruct an attenuation corrected image. The 3D voxel size was 2.0×2.0×2.0 mm and the matrix size was 128×128×90 (FIGS. 2 and 3).

A short description of series [4]: In vivo cerebral uptake and release degree in a normal mouse. On the set-up: species or system ICR mice. Conditions: for % ID-kg/g: corrected for body weight; for % ID/g: tail vein injection, normal mouse; for release from normal mouse brain (in words): up to 60 min. The procedure:
6 week-old ICR mice were used for experiments on cerebral uptake and release degree of three 6-[18F]fluorine-2-allylbenzothiazole derivatives (compounds in Examples 1 to 3) in a mouse over time. Each of the compounds in Examples 1 to 3 was dissolved in physiological saline solution containing 5% ethanol, and each of 200 μl (100 μCi) of the solutions was injected through the tail vein of the mouse. 2, 30, and 60 minutes were selected as in-vivo retention time periods, and 4 to 7 mice were used in each time period. After the mice were sacrificed by cervical dislocation in each time period, the brains were quickly removed, they were separated into three parts of cortex, cerebellum, and remnant on filter paper kept on ice, respectively, and blood was collected. The specimen thus-obtained was introduced into a glass tube, the weight was determined, and the radioactivity were measured using a gamma counter. Using the data obtained, the percent injected dose per gram of tissue (% ID/g) in each sample compared to radioactivity actually injected, and the value (% ID-kg/g) corrected for individual body weights of the mice used were calculated.

Series [5] in a line: Measurement of partition coefficient (1-octanol / PBS buffer, gamma counter). The series is classed as physicochemical. Conditions: 1-octanol / 1 M PBS buffer, room temperature; read-out: Log P value.
Description: For this purpose, the distribution ratio of octanol to water buffer of the compound to be measured may be measured to determine the relative lipophilicity of each compound. […] The mixture was vortexed at room temperature for 5 minutes and then was centrifuged at 1000 rpm for 5 minutes. 4 ml was withdrawn from the octanol layer of the solution, introduced into a new tube, and another 4 ml of 1 M PBS buffer was introduced into the tube. The mixture was vortexed at room temperature for 5 minutes and then centrifuged at 1000 rpm for 5 minutes. 50 μl was withdrawn from the octanol layer and introduced into a test tube, and 500 μl was withdrawn from the 1 M PBS buffer and introduced into the test tube. 3 ml was withdrawn from the octanol layer and introduced into another test tube, and another 3 ml of 1 M PBS buffer was added into the test tube. The mixture was vortexed at room temperature for 5 minutes and then centrifuged at 1000 rpm for 5 minutes. 50 μl was withdrawn from the octanol layer and introduced into a test tube, and 500 μl was withdrawn from the 1 M PBS buffer and introduced into the test tube. 2 ml was withdrawn from the octanol layer and introduced into another test tube, and another 2 ml of the PBS buffer. The mixture was vortexed at room temperature for 5 minutes and then centrifuged at 1000 rpm for 5 minutes. […]
For series [6], the target named is T2, Aβ1-42 fibrils. The series can be described thus: Binding affinity to beta-amyloid fibrils, competition with [125I]TZDM. Conditions: [125I]TZDM radioligand. The protocol: (§1) A fibril solution, in which 1 mg of each of beta-amyloid plaque peptides (Aβ1-40 and Aβ1-42) to be used for analysis was dissolved in 1.155 ml of ethylenediaminetetraacetic acid disodium salt (Na2EDTA) solution, was introduced into 20 mM PBS buffer (pH 7.4), a sonication was performed for 30 minutes, and then the mixture was incubated with stirring for 3 days at 30° C. The thus-obtained solution was high speed centrifuged (28,000 g for 15 minutes) at 4° C., and the supernatant was collected. The precipitate was washed twice with 100 μl of a mixture solution of 1 mM ethylenediaminetetraacetic acid disodium salt and 10 mM PBS buffer. The precipitate was resuspended in 2.310 ml of 1 mM ethylenediaminetetraacetic acid disodium salt and 10 mM PBS buffer, and the suspended sold produced was divided into equal aliquots of 30 μl and kept at −80° C. […] A mixed solution with a total volume of 1000 μl was incubated at room temperature for 3 hours, and then a Whatman GF/B filter was used to separate the solution into unbound radioactive materials and bound radioactive materials. Then, each tube was washed three times with 3 μl of 10% ethanol. The radioactivity was measured using an automatic gamma counter.

For series [7], the target named is T1, Aβ1-40 fibrils. The series is described as above. The conditions noted are these: [125I]TZDM radioligand. The protocol:
as §1

Values joined by “and” are separate entries in the source; they are usually repeats but may differ in a detail not shown here. Equal entries are not always repeated.

T1 sequence (P05067 672-711 limits assumed): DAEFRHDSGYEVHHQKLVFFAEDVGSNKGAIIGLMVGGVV
T2 sequence (P05067 672-713 limits assumed): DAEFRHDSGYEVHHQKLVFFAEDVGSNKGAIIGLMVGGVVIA

As for `CNc1ccc(-c2nc3ccccc3s2)cc1I` [2-(3-[125I]iodo-4′-N-methylaminophenyl)benzothiazole], the Kd is 2.3 ± 0.33 nM at Aβ1-40 fibrils [1] and 0.44 ± 0.25 nM on Aβ1-42 fibrils [2].

Take `CNc1ccc(-c2nc3ccc([18F])cc3s2)cc1` [Example 2, 2-(4′-N-Methylaminophenyl)-6-[^18F]fluorobenzothiazole]: the “brain region to cerebellar ratio, Cinerea” value is 0.45 in series [3] (15 min) and 0.83 in series [3] (90 min). The “brain region to cerebellar ratio, Frontal cortex” value was 0.92 in series [3] (15 min) and 0.96 in series [3] (90 min). Further, the “brain region to cerebellar ratio, Occipital cortex” value in series [3] (15 min) was found to be 1.05; in series [3] (90 min) it was 0.95. For the same compound, the “brain region to cerebellar ratio, posterior cingulate cortex” value in series [3] (15 min) is on record as 0.89; in series [3] (90 min) it was 0.87. Further, the “brain region to cerebellar ratio, Cerebell” value in series [3] (15 min) and in series [3] (90 min) was 1.00 in each case. Besides, the “% ID-kg/g” value in series [4] (Blood, 2 min) is listed as 0.070 ± 0.007 % ID-kg/g; in series [4] (Blood, 30 min) it was 0.032 ± 0.007 % ID-kg/g; in series [4] (Blood, 60 min), 0.042 ± 0.006 % ID-kg/g; in series [4] (Cerebellum, 2 min) it was 0.210 ± 0.017 % ID-kg/g; in series [4] (Cerebellum, 30 min) it was 0.048 ± 0.011 % ID-kg/g; in series [4] (Cerebellum, 60 min) it was 0.032 ± 0.003 % ID-kg/g. Moreover, the “% ID-kg/g” value was determined as 0.222 ± 0.015 % ID-kg/g in series [4] (Cortex, 2 min); 0.042 ± 0.010 % ID-kg/g in series [4] (Cortex, 30 min); 0.024 ± 0.002 % ID-kg/g in series [4] (Cortex, 60 min); 0.212 ± 0.017 % ID-kg/g in series [4] (Remnant (brain), 2 min); 0.066 ± 0.014 % ID-kg/g in series [4] (Remnant (brain), 30 min); 0.044 ± 0.003 % ID-kg/g in series [4] (Remnant (brain), 60 min). Moreover, the “% ID/g” value in series [4] (Blood, 2 min) is recorded as 2.08 ± 0.19 % ID/g; in series [4] (Blood, 30 min), 0.92 ± 0.15 % ID/g; in series [4] (Blood, 60 min), 1.28 ± 0.08 % ID/g; in series [4] (Cerebellum, 2 min), 6.24 ± 0.35 % ID/g; in series [4] (Cerebellum, 30 min), 1.38 ± 0.23 % ID/g; in series [4] (Cerebellum, 60 min) it was 0.98 ± 0.12 % ID/g. Moreover, the “% ID/g” value is 6.62±0.33 % ID/g in series [4] (Cortex, 2 min); 1.20 ± 0.20 % ID/g in series [4] (Cortex, 30 min); 0.73±0.09 % ID/g and 0.73 ± 0.10 % ID/g in series [4] (Cortex, 60 min); 6.30 ± 0.46 % ID/g in series [4] (Remnant (brain), 2 min); 1.91 ± 0.30 % ID/g in series [4] (Remnant (brain), 30 min); 1.32 ± 0.15 % ID/g in series [4] (Remnant (brain), 60 min). Moreover, in series [4] (normal mouse brain), the “release from normal mouse brain (in words)” value is given as “very quickly released”. The logP in series [5] is 3.11.

The compound `CNc1ccc(-c2nc3ccc(F)cc3s2)cc1` [Example 5, 2-(4′-N-methylaminophenyl)-6-fluorobenzothiazole] registered a melting point of 153.5 to 154.5 °C. This compound also registered an inhibition constant Ki at Aβ1-42 fibrils [6] of 7.55 nM. Further, the Ki at Aβ1-40 fibrils [7] was 13.3 nM.

With `CN(C)c1ccc(-c2nc3ccc(F)cc3s2)cc1` [Example 6, 2-(4′-Dimethylaminophenyl)-6-fluorobenzothiazole], the melting point was 204.4 to 205.9 °C. Besides, the Ki at Aβ1-42 fibrils [6] worked out at 1.86 nM. In addition, on Aβ1-40 fibrils [7], the Ki was 7.9 nM.

With `CN(C)c1ccc(-c2nc3ccc([18F])cc3s2)cc1` [Example 3, 2-(4′-N-Dimethylaminophenyl)-6-[^18F]fluorobenzothiazole], the “brain region to cerebellar ratio, Cinerea” value in series [3] (15 min) came out at 0.40; in series [3] (90 min) it was 0.83. The “brain region to cerebellar ratio, Frontal cortex” value in series [3] (15 min) was 0.88; in series [3] (90 min), 1.02. Besides, the “brain region to cerebellar ratio, Occipital cortex” value was found to be 1.17 in series [3] (15 min) and 1.12 in series [3] (90 min). Also, the “brain region to cerebellar ratio, posterior cingulate cortex” value in series [3] (15 min) was 0.91; in series [3] (90 min) it was 1.00. Further, the “brain region to cerebellar ratio, Cerebell” value in series [3] (15 min) and in series [3] (90 min) was 1.00 throughout. Moreover, the “% ID-kg/g” value in series [4] (Blood, 2 min) is recorded as 0.040 ± 0.003 % ID-kg/g; in series [4] (Blood, 30 min) it was 0.026 ± 0.005 % ID-kg/g; in series [4] (Blood, 60 min), 0.021 ± 0.010 % ID-kg/g; in series [4] (Cerebellum, 2 min) it was 0.115 ± 0.005 % ID-kg/g; in series [4] (Cerebellum, 30 min), 0.050 ± 0.007 % ID-kg/g; in series [4] (Cerebellum, 60 min), 0.024 ± 0.012 % ID-kg/g. Moreover, the “% ID-kg/g” value in series [4] (Cortex, 2 min) stood at 0.114 ± 0.004 % ID-kg/g; in series [4] (Cortex, 30 min), 0.054 ± 0.006 % ID-kg/g; in series [4] (Cortex, 60 min), 0.033 ± 0.017 % ID-kg/g; in series [4] (Remnant (brain), 2 min) it was 0.110 ± 0.006 % ID-kg/g; in series [4] (Remnant (brain), 30 min) it was 0.069 ± 0.010 % ID-kg/g; in series [4] (Remnant (brain), 60 min), 0.041 ± 0.020 % ID-kg/g. In addition, the “% ID/g” value in series [4] (Blood, 2 min) came to 1.55 ± 0.08 % ID/g; in series [4] (Blood, 30 min) it was 1.04 ± 0.19 % ID/g; in series [4] (Blood, 60 min), 1.02 ± 0.06 % ID/g; in series [4] (Cerebellum, 2 min) it was 4.45 ± 0.19 % ID/g; in series [4] (Cerebellum, 30 min), 2.03 ± 0.26 % ID/g; in series [4] (Cerebellum, 60 min), 1.16 ± 0.09 % ID/g. Also, the “% ID/g” value in series [4] (Cortex, 2 min) is 4.39 ± 0.22 % ID/g; in series [4] (Cortex, 30 min) it was 2.17 ± 0.26 % ID/g; in series [4] (Cortex, 60 min) it was 1.61 ± 0.22 % ID/g; in series [4] (Remnant (brain), 2 min), 4.26 ± 0.22 % ID/g; in series [4] (Remnant (brain), 30 min) it was 2.80 ± 0.39 % ID/g; in series [4] (Remnant (brain), 60 min), 2.01 ± 0.15 % ID/g. The “initial cerebral uptake (in words)” value in series [4] (normal mouse brain, 2 min) is “relatively lower initial cerebral uptake”. Besides, the “release from normal mouse brain (in words)” value in series [4] (normal mouse brain) was “slower 60-minute removal rate”. For the same compound, the logP in series [5] worked out at 4.33.

The values are drawn from US20110250136A1, “FLUORINATED BENZOTHIAZOLE DERIVATIVES, PREPARATION METHOD THEREOF AND IMAGING AGENT FOR DIAGNOSING ALTZHEIMER'S DISEASE USING THE SAME” (SNU R&DB FOUNDATION, priority 2008, published 2011).
